The NIST ThermoML archive (doi:10.1021/acs.jced.9b00021)

Test: wn = mass fraction of the nth substance listed
Conditions: 400 kPa, Liquid, Concentric cylinders viscometry

CN(CCO)CCO [N-methyldiethanolamine] + O
viscosity [mPa·s]
Conditions | w1 = 0.3 | w1 = 0.4 | w1 = 0.5 | w1 = 0.6 | w1 = 0.7 | w1 = 0.8 | w1 = 0.9 | w1 = 0.95 | w1 = 1
298.15 K | 3.02 | 5.21 | 9.13 | 16.91 | 30.09 | 53.42 | 75.12 | 76.07 | 73.1
303.15 K | 2.64 | 4.41 | 7.51 | 13.4 | 23.11 | 40.03 | 56.05 | 57.55 | 55.89
308.15 K | 2.28 | 3.71 | 6.17 | 10.73 | 18.01 | 30.42 | 42.37 | 44.18 | 43.45
313.15 K | 1.97 | 3.15 | 5.13 | 8.68 | 14.22 | 23.47 | 32.56 | 34.3 | 34.15
318.15 K | 1.75 | 2.73 | 4.34 | 7.15 | 11.42 | 18.44 | 25.45 | 27.04 | 27.15
323.15 K | 1.54 | 2.36 | 3.68 | 5.92 | 9.26 | 14.67 | 20.13 | 21.55 | 21.82
328.15 K | 1.38 | 2.07 | 3.18 | 4.99 | 7.64 | 11.84 | 16.18 | 17.38 | 17.79
333.15 K | 1.24 | 1.83 | 2.76 | 4.23 | 6.36 | 9.67 | 13.16 | 14.14 | 14.63
338.15 K | 1.15 | 1.65 | 2.43 | 3.66 | 5.38 | 8.02 | 10.81 | 11.64 | 12.2
343.15 K | 1.06 | 1.49 | 2.16 | 3.18 | 4.59 | 6.71 | 8.98 | 9.66 | 10.21
348.15 K | 0.97 | 1.35 | 1.92 | 2.77 | 3.94 | 5.66 | 7.52 | 8.09 | 8.6
353.15 K | 0.89 | 1.22 | 1.72 | 2.43 | 3.41 | 4.81 | 6.35 | 6.82 | 7.31
358.15 K | 0.84 | 1.13 | 1.58 | 2.18 | 3 | 4.16 | 5.44 | 5.83 | 6.29
363.15 K | 0.81 | 1.05 | 1.45 | 1.97 | 2.65 | 3.63 | 4.69 | 5.01 | 5.43
368.15 K | 0.79 | 0.97 | 1.33 | 1.77 | 2.37 | 3.18 | 4.09 | 4.33 | 4.72
373.15 K | 0.76 | 0.91 | 1.23 | 1.61 | 2.12 | 2.82 | 3.58 | 3.77 | 4.12
